{"source": "patent US20160256449A1", "about": "“H3 RECEPTOR ANTAGONIST FOR USE IN THE TREATMENT OF ALZHEIMER'S DISEASE” (SANOFI, priority 2013, published 2016)", "key": {"[1]": {"tested_on": "patients with mild to moderate Alzheimer's disease", "test": "clinical study, CDR-S computerized assessment", "format": "in vivo, human", "procedure": "“CDR-S” as used herein, refers to the Cognitive Drug Research computerized assessment system which tests various aspects of human cognitive function, memory, and attention.\n(§1) A randomized, double-blind, parallel-group, placebo-controlled clinical trial was performed to study the effect on cognitive performance, safety, and tolerability of 2-(cyclohexylmethyl)-N-{2-[(2S)-1-methylpyrrolidin-2-yl]ethyl}-1,2,3,4-tetrahydroisoquinoline-7-sulfonamide difumarate monohydrate as adjunct treatment to donepezil.\n(§2) More specifically, patients with mild to moderate Alzheimer's disease on stable donepezil therapy were randomized to receive doses of 0.5 mg, 2 mg, or 5 mg/day of 2-(cyclohexylmethyl)-N-{2-[(2S)-1-methylpyrrolidin-2-yl]ethyl}-1,2,3,4-tetrahydroisoquinoline-7-sulfonamide difumarate monohydrate or placebo for 24 weeks, with a 10 week follow-up period.\n(§3) Patients were randomized to receive 0.5 mg, 2 mg, or 5 mg of 2-(cyclohexylmethyl)-N-{2-[(2S)-1-methylpyrrolidin-2-yl]ethyl}-1,2,3,4-tetrahydroisoquinoline-7-sulfonamide difumarate monohydrate (measured in base form), or matching placebo once a day, with donepezil (5 mg or 10 mg in the form the patient took prior to enrollment), for 24 weeks, with or without food.\nChange from baseline to Week 24 in the five factors from the Cognitive Drug Research computerized assessment system (CDR-S): power of attention, continuity of attention, quality of working memory, cognitive reaction time, and speed of memory;\nChange from baseline to Week 8 and 24 in the Cognitive Drug Research computerized assessment system (CDR-S) episodic memory;"}, "[2]": {"tested_on": "patients with mild to moderate Alzheimer's disease", "test": "clinical study, Neuropsychiatric Inventory (NPI) domain scores", "format": "in vivo, human", "procedure": "as §1, §2, §3\n[…] (NPI) domain scores of irritability/lability, anxiety, agitation/aggression, sleep and nighttime behavior disorders, aberrant motor behaviour, apathy/indifference, appetite/eating change, delusions, depression/dysphoria, disinhibition, elation/euphoria, and hallucinations."}, "CD1 male mice": {"tested_on": "CD1 male mice", "test": "object recognition test in normal mice", "format": "in vivo", "from_the_text": "FIG. 1 illustrates the results of the effect of a co-treatment with 2-(cyclohexyl methyl)-N-{2-[(2S)-1-methyl pyrrolidin-2-yl]ethyl}-1,2,3,4-tetrahydroisoquinoline-7-sulfonamide and donepezil on recognition memory in normal mice at various delays using the object recognition task.\nThe results of this study are depicted in FIG. 1."}}, "data": [{"smiles": "CN1CCC[C@H]1CCNS(=O)(=O)c1ccc2c(c1)CN(CC1CCCCC1)CC2", "note": "[API, 2-(cyclohexylmethyl)-N-{2-[(2S)-1-methylpyrrolidin-2-yl]ethyl}-1,2,3,4-tetrahydroisoquinoline-7-sulfonamide difumarate monohydrate]", "values": [{"measurement": "episodic memory difference vs placebo", "setting": "[1]; 5 mg/day with donepezil, at 24 weeks", "result": "no longer significant"}, {"measurement": "power of attention vs placebo, tendency", "setting": "[1]; 0.5 and 5 mg group at week 24", "result": "Tendencies for improvement versus placebo"}, {"measurement": "power of attention change from baseline vs placebo", "setting": "[1]; all dose groups, week 8 or week 24, mITT", "result": "no significant difference"}, {"measurement": "CDR-S measure of working memory", "setting": "[1]; week 24, with donepezil", "result": "not significantly modified"}, {"measurement": "CDR-S other measures of attention/speed of response", "setting": "[1]; week 24, with donepezil", "result": "not significantly modified"}, {"measurement": "NPI Abberant motor behavior, Ch from bl W12", "setting": "[2]; 0.5 mg/day with donepezil", "result": "−0.08"}, {"measurement": "NPI Abberant motor behavior, Ch from bl W24", "setting": "[2]; 0.5 mg/day with donepezil", "result": 0.42}, {"measurement": "NPI Agitation/Aggression, Ch from bl W12", "setting": "[2]; 0.5 mg/day with donepezil", "result": 0.23}, {"measurement": "NPI Agitation/Aggression, Ch from bl W24", "setting": "[2]; 0.5 mg/day with donepezil", "result": 0.04}, {"measurement": "NPI Anxiety, Ch from bl W12", "setting": "[2]; 0.5 mg/day with donepezil", "result": 0.20}, {"measurement": "NPI Anxiety, Ch from bl W24", "setting": "[2]; 0.5 mg/day with donepezil", "result": 0.16}, {"measurement": "NPI Apathy/Indifference, Ch from bl W12", "setting": "[2]; 0.5 mg/day with donepezil", "result": "−0.21"}, {"measurement": "NPI Apathy/Indifference, Ch from bl W24", "setting": "[2]; 0.5 mg/day with donepezil", "result": 0.13}, {"measurement": "NPI Appetite/Eating changes, Ch from bl W12", "setting": "[2]; 0.5 mg/day with donepezil", "result": "−0.58"}, {"measurement": "NPI Appetite/Eating changes, Ch from bl W24", "setting": "[2]; 0.5 mg/day with donepezil", "result": "−0.33"}, {"measurement": "NPI Delusions, Ch from bl W12", "setting": "[2]; 0.5 mg/day with donepezil", "result": 0.31}, {"measurement": "NPI Delusions, Ch from bl W24", "setting": "[2]; 0.5 mg/day with donepezil", "result": 0.28}, {"measurement": "NPI Depression/Dysphoria, Ch from bl W12", "setting": "[2]; 0.5 mg/day with donepezil", "result": 0.00}, {"measurement": "NPI Depression/Dysphoria, Ch from bl W24", "setting": "[2]; 0.5 mg/day with donepezil", "result": 0.07}, {"measurement": "NPI Disinhibition, Ch from bl W12", "setting": "[2]; 0.5 mg/day with donepezil", "result": "−0.13"}, {"measurement": "NPI Disinhibition, Ch from bl W24", "setting": "[2]; 0.5 mg/day with donepezil", "result": "−0.06"}, {"measurement": "NPI Elation/Euphoria, Ch from bl W12", "setting": "[2]; 0.5 mg/day with donepezil", "result": 0.15}, {"measurement": "NPI Elation/Euphoria, Ch from bl W24", "setting": "[2]; 0.5 mg/day with donepezil", "result": 0.20}, {"measurement": "NPI Hallucination, Ch from bl W12", "setting": "[2]; 0.5 mg/day with donepezil", "result": 0.05}, {"measurement": "NPI Hallucination, Ch from bl W24", "setting": "[2]; 0.5 mg/day with donepezil", "result": "−0.06"}, {"measurement": "NPI Irritability lability, Ch from bl W12", "setting": "[2]; 0.5 mg/day with donepezil", "result": "−0.07"}, {"measurement": "NPI Irritability lability, Ch from bl W24", "setting": "[2]; 0.5 mg/day with donepezil", "result": 0.09}, {"measurement": "NPI Sleep and nighttime behavior, Ch from bl W12", "setting": "[2]; 0.5 mg/day with donepezil", "result": 0.30}, {"measurement": "NPI Sleep and nighttime behavior, Ch from bl W24", "setting": "[2]; 0.5 mg/day with donepezil", "result": "−0.23"}, {"measurement": "NPI Abberant motor behavior, Ch from bl W12", "setting": "[2]; 2 mg/day with donepezil", "result": 0.25}, {"measurement": "NPI Abberant motor behavior, Ch from bl W24", "setting": "[2]; 2 mg/day with donepezil", "result": 0.56}, {"measurement": "NPI Agitation/Aggression, Ch from bl W12", "setting": "[2]; 2 mg/day with donepezil", "result": 0.48}, {"measurement": "NPI Agitation/Aggression, Ch from bl W24", "setting": "[2]; 2 mg/day with donepezil", "result": 0.68}, {"measurement": "NPI Anxiety, Ch from bl W12", "setting": "[2]; 2 mg/day with donepezil", "result": "−0.03"}, {"measurement": "NPI Anxiety, Ch from bl W24", "setting": "[2]; 2 mg/day with donepezil", "result": 0.15}, {"measurement": "NPI Apathy/Indifference, Ch from bl W12", "setting": "[2]; 2 mg/day with donepezil", "result": 0.26}, {"measurement": "NPI Apathy/Indifference, Ch from bl W24", "setting": "[2]; 2 mg/day with donepezil", "result": 0.92}, {"measurement": "NPI Appetite/Eating changes, Ch from bl W12", "setting": "[2]; 2 mg/day with donepezil", "result": "−0.18"}, {"measurement": "NPI Appetite/Eating changes, Ch from bl W24", "setting": "[2]; 2 mg/day with donepezil", "result": "−0.02"}, {"measurement": "NPI Delusions, Ch from bl W12", "setting": "[2]; 2 mg/day with donepezil", "result": "−0.05"}, {"measurement": "NPI Delusions, Ch from bl W24", "setting": "[2]; 2 mg/day with donepezil", "result": 0.21}, {"measurement": "NPI Depression/Dysphoria, Ch from bl W12", "setting": "[2]; 2 mg/day with donepezil", "result": 0.35}, {"measurement": "NPI Depression/Dysphoria, Ch from bl W24", "setting": "[2]; 2 mg/day with donepezil", "result": 0.12}, {"measurement": "NPI Disinhibition, Ch from bl W12", "setting": "[2]; 2 mg/day with donepezil", "result": 0.08}, {"measurement": "NPI Disinhibition, Ch from bl W24", "setting": "[2]; 2 mg/day with donepezil", "result": 0.03}, {"measurement": "NPI Elation/Euphoria, Ch from bl W12", "setting": "[2]; 2 mg/day with donepezil", "result": "−0.06"}, {"measurement": "NPI Elation/Euphoria, Ch from bl W24", "setting": "[2]; 2 mg/day with donepezil", "result": 0.07}, {"measurement": "NPI Hallucination, Ch from bl W12", "setting": "[2]; 2 mg/day with donepezil", "result": 0.02}, {"measurement": "NPI Hallucination, Ch from bl W24", "setting": "[2]; 2 mg/day with donepezil", "result": 0.02}, {"measurement": "NPI Irritability lability, Ch from bl W12", "setting": "[2]; 2 mg/day with donepezil", "result": 0.47}, {"measurement": "NPI Irritability lability, Ch from bl W24", "setting": "[2]; 2 mg/day with donepezil", "result": 0.63}, {"measurement": "NPI Sleep and nighttime behavior, Ch from bl W12", "setting": "[2]; 2 mg/day with donepezil", "result": 0.33}, {"measurement": "NPI Sleep and nighttime behavior, Ch from bl W24", "setting": "[2]; 2 mg/day with donepezil", "result": 0.19}, {"measurement": "NPI Abberant motor behavior, Ch from bl W12", "setting": "[2]; 5 mg/day with donepezil", "result": "−0.11"}, {"measurement": "NPI Abberant motor behavior, Ch from bl W24", "setting": "[2]; 5 mg/day with donepezil", "result": "−0.69"}, {"measurement": "NPI Agitation/Aggression, Ch from bl W12", "setting": "[2]; 5 mg/day with donepezil", "result": "−0.12"}, {"measurement": "NPI Agitation/Aggression, Ch from bl W24", "setting": "[2]; 5 mg/day with donepezil", "result": 0.58}, {"measurement": "NPI Anxiety, Ch from bl W12", "setting": "[2]; 5 mg/day with donepezil", "result": 0.12}, {"measurement": "NPI Anxiety, Ch from bl W24", "setting": "[2]; 5 mg/day with donepezil", "result": 0.12}, {"measurement": "NPI Apathy/Indifference, Ch from bl W12", "setting": "[2]; 5 mg/day with donepezil", "result": 0.09}, {"measurement": "NPI Apathy/Indifference, Ch from bl W24", "setting": "[2]; 5 mg/day with donepezil", "result": 0.10}, {"measurement": "NPI Appetite/Eating changes, Ch from bl W12", "setting": "[2]; 5 mg/day with donepezil", "result": "−0.17"}, {"measurement": "NPI Appetite/Eating changes, Ch from bl W24", "setting": "[2]; 5 mg/day with donepezil", "result": 0.1}, {"measurement": "NPI Delusions, Ch from bl W12", "setting": "[2]; 5 mg/day with donepezil", "result": 0.00}, {"measurement": "NPI Delusions, Ch from bl W24", "setting": "[2]; 5 mg/day with donepezil", "result": 0.04}, {"measurement": "NPI Depression/Dysphoria, Ch from bl W12", "setting": "[2]; 5 mg/day with donepezil", "result": "−0.07"}, {"measurement": "NPI Depression/Dysphoria, Ch from bl W24", "setting": "[2]; 5 mg/day with donepezil", "result": 0.25}, {"measurement": "NPI Disinhibition, Ch from bl W12", "setting": "[2]; 5 mg/day with donepezil", "result": 0.00}, {"measurement": "NPI Disinhibition, Ch from bl W24", "setting": "[2]; 5 mg/day with donepezil", "result": 0.06}, {"measurement": "NPI Elation/Euphoria, Ch from bl W12", "setting": "[2]; 5 mg/day with donepezil", "result": 0.14}, {"measurement": "NPI Elation/Euphoria, Ch from bl W24", "setting": "[2]; 5 mg/day with donepezil", "result": 0.10}, {"measurement": "NPI Hallucination, Ch from bl W12", "setting": "[2]; 5 mg/day with donepezil", "result": "−0.14"}, {"measurement": "NPI Hallucination, Ch from bl W24", "setting": "[2]; 5 mg/day with donepezil", "result": "−0.15"}, {"measurement": "NPI Irritability lability, Ch from bl W12", "setting": "[2]; 5 mg/day with donepezil", "result": 0.03}, {"measurement": "NPI Irritability lability, Ch from bl W24", "setting": "[2]; 5 mg/day with donepezil", "result": 0.47}, {"measurement": "NPI Sleep and nighttime behavior, Ch from bl W12", "setting": "[2]; 5 mg/day with donepezil", "result": 0.08}, {"measurement": "NPI Sleep and nighttime behavior, Ch from bl W24", "setting": "[2]; 5 mg/day with donepezil", "result": 0.71}, {"measurement": "domains of the NPI, overall", "setting": "[2]; 0.5, 2, 5 mg/day with donepezil", "result": "No relevant modification"}, {"measurement": "procognitive effect of co-administration in object recognition test", "setting": "CD1 male mice; 3 mg/kg co-administered with 3 mg/kg donepezil hydrochloride, 48 hours post administration", "result": "significant procognitive effect"}, {"measurement": "memory in object recognition test", "setting": "CD1 male mice; 3 mg/kg oral, individually, 24 hours after administration", "result": "enhanced the memory"}, {"measurement": "procognitive effect in object recognition test", "setting": "CD1 male mice; 3 mg/kg oral, individually, after 48 hours", "result": "lack of procognitive effect"}]}]}
